Reference: PubChem BioAssay (NCI)
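Cultured in 96-well plates, cells were exposed to test compound for 48 hours across five concentrations. The concentration for 50% growth inhibition is given as GI50. The concentration for full growth arrest is given as TGI.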

Each molecule was assayed on MDA-MB-468 breast (assay: NCI-60 cell line screen, 48 h).

Compound	GI50 [µM]	TGI [µM]
O=C(Nc1cnn2ccc(N3CCC[C@@H]3c3cc(F)ccc3F)nc12)N1CC[C@H](O)C1	> 100	> 100
C/C=C(\C)C(=O)O[C@@H]1C(O)[C@H]2OC(COC(=O)CCC(=O)CCCCCC[C@H](CCCCC)O[C@@H]3OC(C)[C@H](OC(C)=O)C(O)[C@H]3O2)[C@H]1OC(=O)/C=C/c1ccccc1 (some centres undefined)	< 0.01	1.18
O=C1/C(=C/c2ccccc2)SC(=Nc2ccccc2)N1Nc1ccccc1	14	> 100
COc1ccc(-c2cnc(-c3ccc(F)cc3)[nH]2)cc1	2.22	7
CN1CCN(CC(=O)Nc2ccc3ncnc(Nc4ccc(Oc5cccc(C(F)(F)F)c5)c(Cl)c4)c3c2)CC1	1.16	2.66
NC1=NC(c2ccccc2)N=C(Nc2ccccc2)N1 (centres undefined)	44.4	> 100
COc1ccc2nc(NCCCNCCO)c3sc4ccc(F)cc4c(=O)c3c2c1	1.71	3.28
Nc1ccn([C@H]2C[C@@H](O)[C@@H](CO)S2)c(=O)n1	> 100	> 100
Cc1ccc(S(=O)(=O)Oc2ccc3c4c(c(=O)oc3c2)CCCCC4)cc1	2.77	> 100
CCOC(=O)/C=C1\SC(=Nc2ccc(C#N)cc2)N(CCN2C(=O)/C(=C/C(=O)OCC)SC2=Nc2ccc(C#N)cc2)C1=O	3.1	17.4
COc1cc(NN=C(c2ccc(O)cc2)c2ccc(O)cc2)c([N+](=O)[O-])cc1[N+](=O)[O-]	12.5	25
CC(CN)[C@@H]1CC[C@]2(CO)CC[C@]3(C)[C@H](CC[C@@H]4[C@@]5(C)CCC(NCCO)C(C)(C)[C@@H]5CC[C@]43C)[C@@H]12 (some centres undefined)	1.48	3.08
Nc1ccc(C#Cc2cncnc2Nc2ccc(OCc3cccc(F)c3)c(Cl)c2)cc1	1.15	9.24
Nc1nc2c(c3ncccc13)C(c1cccc(Cl)c1)Cc1ncccc1-2 (centres undefined)	1.61	22.7
CS(=O)(=O)N1CCN(Cc2cc3nc(-c4cccc5[nH]ncc45)nc(N4CCOCC4)c3s2)CC1 (tested in a mixture with another compound)	0.109	0.697
CN1CCN(c2ccc(-c3cnc4c(-c5csc6ccccc56)cnn4c3)cc2)CC1	> 15	> 15
N#C/C(=C\c1ccc(Br)cc1)n1nnc2cccc(F)c21	0.327	1.15
C=C1C(=O)O[C@H]2[C@H]1CC/C(COC(=O)C(=O)c1c[nH]c3ccc(OC)cc13)=C\CC[C@@]1(C)O[C@@H]21	2.17	4.77
COc1ncc(-c2nc3c(n2C(C)C)[C@H](c2ccc(Cl)cc2)N(c2cc(Cl)cn(C)c2=O)C3=O)c(OC)n1	18.2	71.4

Compound	GI50 [µM]	TGI [µM]
O=C1C(Cl)=C(Nc2ccc3cn[nH]c3c2)C(=O)c2ccccc21	1.14	2.4
CCNC(=O)Oc1ccc(/C(=C(/C)c2ccc(Cl)cc2)c2ccc(OCCN3CCCCCC3)cc2)cc1	1.44	3.07
C=C(CNCCc1ccc(O)cc1)[C@@H]1CC[C@]2(CO)CC[C@]3(C)[C@H](CC[C@@H]4[C@@]5(C)CCC(=O)C(C)(C)[C@@H]5CC[C@]43C)[C@@H]12	1.53	3.1
Nc1nc2ccc([C@@H]3Nc4ccc5[nH]ncc5c4[C@H]4[C@H]5CCC(C5)[C@H]43)cc2s1	0.403	2.53
CCCCCCCCOc1ccc(/C=N/Nc2cc(C)nc3ccc(Cl)cc23)cc1	1.79	3.42
CC[N+](CC)=c1ccc2nc3c(cc(NCc4ccccc4)c4ccccc43)oc-2c1	0.134	1.07
CN(C)CCNC(=O)c1cccc2cc3ccccc3nc12	1.26	4.21
Cn1ccc(=Nc2ccc(NC(=O)c3ccc(N=c4ccn(C)c5ccc([N+](=O)[O-])cc45)cc3)cc2)cc1	7.28	> 100
COC(=O)c1c2c(c(C)[n+]([O-])c1C)C(=O)C=C(NCc1cccc(OC)c1)C2=O	0.257	0.797
COc1ccc(C2NCCc3c2[nH]c2ccccc32)cc1CN1CCN(c2ccc(F)cc2)CC1 (centres undefined)	1.67	3.36
COc1cc2cc(Oc3ccc(NC(=O)Nc4ccccc4)cc3)c(C)nc2cc1OCCN1CCCCC1	5.64	10.8
Nc1c(C(=O)c2cccc(OCCN3CCOCC3)c2)cnn1-c1ccc(F)cc1	> 25	> 25
COC(=O)[C@]12CC[C@@H](C)[C@H](C)[C@@H]1C1=CC[C@@H]3[C@@]4(C)C(C=O)=C[C@@](C)(COC(C)=O)[C@@H]4[C@H](O)C[C@@]3(C)[C@]1(C)CC2	2.04	4.4
O=C(Oc1ccc([N+](=O)[O-])cc1)N1CCN(Cc2cccc(Oc3ccccc3)c2)CC1	19.1	> 100
N#CC1C(=N)Cc2ccccc2-c2ccccc21 (centres undefined)	3.15	13.4
COC(=O)c1ccc(=O)c2nc3/c(=C/O)c(O)cc(=O)c3[nH]c12	0.937	48.5
Cc1ccc(N=C2CSc3nnc(-c4csc5c4CCCC5)n3N2)cc1	0.142	> 50
COc1ccc(/C=C(/C(=O)N2CCCC2)c2cc(OC)c(OC)c(OC)c2)cc1N	1.28	> 100
